The assay deals with T1, Human recombinant MetAP2 (Homo sapiens, UniProt P50579).
T1 construct: made in house; host or cells: Sf9 insect cells
Description: recombinant human MetAP2 inhibition assay (MAS substrate, amino acid oxidase/Amplex red fluorescence). Type of assay: biochemical. As to conditions: manganese enzyme, 30 minutes at 25° C., pH 7.5, 0.75 mM MAS substrate, 1% DMSO. As to the method:
Compounds are tested for their capacity to inhibit recombinant human MetAP2 activity using the following assay.
Human recombinant MetAP2 expressed in Sf9 cells followed by affinity purification and EDTA treatment to remove endogenous active site cation was dialysed against MnCl2 to produce the manganese enzyme used in the assay. The assay was carried out for 30 minutes at 25° C. in 50 mM HEPES buffer containing 100 mM NaCl, at pH 7.5. The presence of 0.75 mM Methionine-Alanine-Serine (MAS) substrate and 50 μg/mL amino acid oxidase using a dilution of purified MetAP2 gives >3-fold signal:noise. Cleavage of the substrate by MetAP2 and oxidation of free methionine by amino acid oxidase was detected and quantified using fluorescence generated by Amplex red (10-acetyl-3,7-dihydroxyphenoxazine) in combination with horseradish peroxidase which detects H2O2 released during the oxidation step. The fluorescent signal was detected using a multiwell fluorimeter. Compounds were diluted in DMSO prior to addition to assay buffer, the final DMSO concentration in the assay being 1%.
The IC50 is defined as the concentration at which a given compound achieves 50% inhibition of control. IC50 values are calculated using the XLfit software package (version 2.0.5).

SMILES strings stand for the structures. Where only a bound is given, the exact number is not on record here.

This is an account of results in patent US9440943B2, “Tricyclic sulfone compounds and methods of making and using same” (Zafgen, Inc., priority 2012, dated 2016).

The IC50 is the concentration at which inhibition is half-maximal.

T1 sequence (P50579 whole entry): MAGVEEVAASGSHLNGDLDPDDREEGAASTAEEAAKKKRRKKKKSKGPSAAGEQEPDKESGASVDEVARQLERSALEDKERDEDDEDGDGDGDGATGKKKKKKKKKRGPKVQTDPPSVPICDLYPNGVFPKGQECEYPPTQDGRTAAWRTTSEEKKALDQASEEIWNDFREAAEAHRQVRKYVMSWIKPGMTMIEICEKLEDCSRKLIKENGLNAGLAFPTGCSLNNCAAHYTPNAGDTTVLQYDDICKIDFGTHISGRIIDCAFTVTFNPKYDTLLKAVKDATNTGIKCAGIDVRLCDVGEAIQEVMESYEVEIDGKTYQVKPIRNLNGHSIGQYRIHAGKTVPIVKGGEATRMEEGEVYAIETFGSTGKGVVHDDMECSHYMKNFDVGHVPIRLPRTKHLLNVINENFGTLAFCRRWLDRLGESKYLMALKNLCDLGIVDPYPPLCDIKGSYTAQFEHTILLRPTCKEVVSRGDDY

Take `CCN(CC)C/C=C\c1cc(F)ccc1S(=O)(=O)Cc1ccc2c(c1C(=O)O)OC[C@H]1C[C@@H]21` (racemic) [Example 1, Cis-(1aRS,7bSR)-5-[2-((Z)-3-diethylaminoprop-1-enyl)-4-fluoro-benzenesulfonylmethyl]-1,1a,2,7b-tetrahydrocyclopropa[c]chromene-4-carboxylic acid]: the IC50 is above 100 nM.
Turning to `CCN(CC)C/C=C\c1cc(F)ccc1S(=O)(=O)Cc1ccc2c(c1C(=O)O)OC[C@@H]1C[C@H]21` [Example 2], the IC50 is above 100 nM.
